Measured values: a melting point compilation (Tetko et al.; mined from patent text by program, amines drawn as free bases though some values may be those of a salt)

Compared with `CC(C)(C)c1ccc(C(=O)Nc2cn3cc(-c4ccoc4)ccc3n2)cc1`, `CNC(=O)c1ccc(C=CC(=O)Nc2cccc(-c3ccc(C)c(CCl)c3C)c2)cc1` is lower in melting point: 258 to 259 °C for the first, 236 to 244 °C for the second.

First: CC(C)(S)CNC(=O)c1ccccc1-c1ccccc1C(=O)O
Second: CC(Br)C(=O)c1ccc(OCc2ccccc2)c(CO)c1 (stereo not given)
The melting point of the first is higher: 150 to 153 °C for the first, 80 °C for the second.

First: C#CCN(Cc1cc2c(=O)n(C)c(CN3CCCCC3)nc2cc1Cl)c1ccc(C(=O)OC(C)(C)C)cc1
Second: CCN1CC(c2ccccc2)=C(OCCN2CCCCC2)C1=O
The melting point of the first is higher: 162 to 163 °C for the first, 120 °C for the second.

`O=C(OC1CCN(c2ncc(-c3ccccc3Cl)cn2)CC1)N1CCC(O)CC1` and `CCCc1cc(N2CCC(NCC(O)c3nccc4ccccc34)CC2)nc2sc(C(N)=O)c(N)c12` (stereo not given) cannot be ordered by melting point: 124 to 126 °C for the first, less than 150 °C for the second.

First: O=C(O)COc1ccc2c(-c3ccc(Cl)cc3F)noc2c1Cl
Second: Fc1ccc2nc(-c3ccc(Cl)cc3)cc(Cl)c2c1
The melting point of the first is higher: 226 to 227 °C for the first, 169 to 172 °C for the second.

Compared with `NC(=O)COc1ccc(CCNS(=O)(=O)c2ccc(Cl)cc2)cc1`, `CC(C)(C(=O)NO)N(CCC(=O)O)S(=O)(=O)c1ccc(Oc2ccc(F)cc2)cc1` is higher in melting point: 158 to 159 °C for the first, 162 °C for the second.

`CC1CCC(=NN)c2ncc(C(=O)O)c(=O)n21` (stereo not given) and `Cc1cc(C(=O)Nc2nc(-c3ccoc3)c(C(=O)C3CCOCC3)s2)ccn1` cannot be ordered by melting point: 202 to 203 °C for the first, 202 to 204 °C for the second.

Compared with `Cc1cccc(NC(=O)CN2CCN(c3ccccc3C)CC2)c1`, `O=C(CN1CCC(Cc2ccccc2)CC1)Nc1ccc2c(c1)CC(=O)N2` is higher in melting point: 104 to 106 °C for the first, 166 to 170 °C for the second.

First: Cc1nn(Cc2ccc(OCc3nc(-c4ccccc4)oc3C)cc2)c(C)c1CCC(=O)O
Second: COc1cc(COc2ncccc2CC#N)ccc1OCc1nc(-c2ccccc2)oc1C
The melting point of the first is higher: 170 to 171 °C for the first, 108 to 109 °C for the second.

Compared with `NC(=O)c1ccc(N2CCN(c3ccncc3)CC2)cc1`, `COc1ccc(C(=O)c2c(F)cccc2F)cc1` is lower in melting point: 327 to 330 °C for the first, 122 to 124 °C for the second.

First: CCOC(=O)c1cnoc1-c1ccc(OC)cc1
Second: CCc1ccccc1-c1nc(-c2cccc(OC)c2)n[nH]1
The melting point of the first is lower: 54 to 55 °C for the first, 72 to 75 °C for the second.

First: CCS(=O)(=O)Nc1ccc2[nH]cc(C3=CCN(C)CC3)c2c1
Second: CN1CCc2c(ccc3[nH]c(=O)c(=O)[nH]c23)C1
The melting point of the first is lower: 224 to 226 °C for the first, 310 to 335 °C for the second.

Compared with `CCOC(=O)CN(CCc1ccccc1)C(=O)[C@@H]1C[C@@H](SC(C)=O)CN1S(=O)(=O)c1ccc2ccccc2c1`, `COc1ccc(S(=O)(=O)Nc2ccccc2Nc2ccccc2)cc1` is higher in melting point: 119 to 120 °C for the first, 140 to 142 °C for the second.

First: COCCn1nc(-c2ccc(Cl)cc2)c2ccccc2c1=O
Second: O=C(c1ccc(-c2ccc(Cl)cc2)o1)C1CC1
The melting point of the first is higher: 116 to 118 °C for the first, 88 to 89 °C for the second.

First: CCc1cn(C2CC(O)C(CSCc3ccccc3)O2)c(=O)[nH]c1=O (stereo not given)
Second: CC1(C2=C(O)C(=O)c3ccccc3C2=O)CCCC1
The melting point of the first is higher: 149 to 151 °C for the first, 116 to 118 °C for the second.

First: CCCCCCOc1ccc(Nc2cc(Nc3ccc4c(c3)OCCO4)ncc2F)cc1
Second: CCOc1ccc(C2=NN(CCCCOc3ccc(C4=NNC(=O)CC4C)cc3)C(=O)C3CC=CCC23)cc1OCC (stereo not given)
The melting point of the first is higher: 124 to 125 °C for the first, 73 to 78 °C for the second.

Compared with `CCN(CC)CCOC1CCC2C3CCc4cc(OC)ccc4C3CCC12CC` (stereo not given), `CC12CC(O)C3c4cc(O)ccc4CCC3C1CCC2O` (stereo not given) is higher in melting point: 66 to 67 °C for the first, 229 to 232 °C for the second.

First: OCC1(c2ccc(Cl)cc2)CC1c1ccc(-c2ccccc2)cc1 (stereo not given)
Second: Cc1cc2n(n1)-c1ccc(Cl)cc1C(c1ccccc1)=NC2
The melting point of the first is higher: 168 to 170 °C for the first, 105 to 107 °C for the second.

First: CCCCC(=O)Nc1c(C(=O)c2cccc(Cl)c2)[nH]c2cc(Cl)ccc12
Second: Nc1c(Br)cc(Cl)cc1C(=O)c1ccccc1Cl
The melting point of the first is higher: 159 to 160 °C for the first, 100 to 101 °C for the second.

First: Fc1ccc(Oc2ccc3nc(Cl)ncc3c2)c(F)c1
Second: Cc1cc(C)c(Nc2nc(C)ncc2S(=O)(=O)c2ccc(F)cc2)c(C)c1
The melting point of the first is lower: 110 to 113 °C for the first, 191 to 193 °C for the second.

First: Brc1ccc(-c2nc3n(c2-c2ccc(Br)cc2)CCS3)cc1
Second: CC(C)c1nc(-c2cccc3c2OCO3)cc(-c2ccc(F)cc2)c1CO
The melting point of the first is higher: 208 to 210 °C for the first, 114 to 115 °C for the second.

Compared with `FC(F)(F)c1ccc2c(c1)N(C1=CCCN1C1=NCCC1)c1ccccc1O2`, `COC(=O)c1c(O)c(-c2cccc(C(F)(F)F)c2)nn1C` is lower in melting point: 140 to 142 °C for the first, 101 to 103 °C for the second.

First: Cc1nn(C)c(C)c1Nc1ccc([N+](=O)[O-])cc1[N+](=O)[O-]
Second: CC(C)C(c1ccc(N)c([N+](=O)[O-])c1)n1cncn1 (stereo not given)
The melting point of the first is lower: 153 °C for the first, 206 °C for the second.

First: CC1=C(c2ccccc2)C(=O)N(C(C)(C)C(O)C(C)C)CO1 (stereo not given)
Second: N#Cc1c(-c2ccccc2)nn2ccccc12
The melting point of the first is lower: 42 to 54 °C for the first, 138 to 139 °C for the second.

Compared with `Cn1cc(C(F)(F)F)nc1-c1ccc(OCC(O)CNCCOc2ccc(O)c(C(N)=O)c2)cc1` (stereo not given), `O=C1CCC(N2Cc3cc(CNC(=S)Nc4ccc(SC(F)(F)F)cc4)ccc3C2=O)C(=O)N1` (stereo not given) is higher in melting point: 195 to 197 °C for the first, 229 to 231 °C for the second.

First: N#CCCNC(=O)c1cccc(-c2ccc3c(c2)N(c2cccc(Cl)c2Cl)CC3)c1
Second: CCCc1nc2ccccc2n1CC1=C(c2cccc(-c3nnn[nH]3)c2)CCC1
The melting point of the first is higher: 155 to 156 °C for the first, 116 to 119 °C for the second.

Compared with `Cc1cc(N2CCC(N3CCCC3C)C2)ccc1C(=O)NC1CCOCC1` (stereo not given), `O=c1[nH]c(=O)c2cc(N3CCCCC3)ccc2[nH]1` is higher in melting point: 147 °C for the first, greater than 280 °C for the second.

First: Cc1cc(C2c3cc4c(cc3CC(C)NN2C(=O)NC(C)c2ccccc2)OCO4)ccc1[N+](=O)[O-] (stereo not given)
Second: COc1cc(-c2oc3ccccc3c(=O)c2C(=O)N2CCN(c3ccccn3)CC2)cc(OC)c1OC
The melting point of the first is higher: 202 to 204 °C for the first, 90 to 95 °C for the second.

First: O=P(Cc1ccc2ccccc2c1-c1c(CP(=O)(c2ccc(F)cc2)c2ccc(F)cc2)ccc2ccccc12)(c1ccc(F)cc1)c1ccc(F)cc1
Second: c1cc2c3c(cccc3c1)C(NOCCCCn1ccnc1)=N2
The melting point of the first is higher: 211 to 214 °C for the first, 126 to 128 °C for the second.

First: COC(=O)c1cc(C(C)=O)c(C)nc1C1=NC(C)(C(C)C)C(=O)N1 (stereo not given)
Second: COc1ccc(/C(=N\O)c2cccc(NS(=O)(=O)N(C)C)c2)cc1
The melting point of the first is lower: 118 to 120 °C for the first, 160 to 161 °C for the second.

First: CC(CO)C1CCC2=C3C=CC4C(C)(C)C(OC(=O)c5ccccc5)CCC4(C)C3CCC21C (stereo not given)
Second: CN1C(=O)N(C[C@H](CO)[C@@H](CC2CCCC2)C(=O)N2CCCCC2)C(=O)C1(C)C
The melting point of the first is higher: 218 to 220 °C for the first, 92 to 95 °C for the second.

First: COc1ccc(N2CCN(c3c(C)c(C)c4c(c3C)C(N3CCCC3)C(C)(C)O4)CC2)cc1OC (stereo not given)
Second: COc1ccc(OC)c2c(O)c(C#N)cnc12
The melting point of the first is lower: 128 to 130 °C for the first, 300 to 305 °C for the second.

First: CCOC(CNC(=O)Nc1ccc(-n2cncn2)cc1)OCC
Second: Cn1c(=O)[nH]c2ccc(Br)cc21
The melting point of the first is lower: 139 to 140 °C for the first, 237 to 238 °C for the second.

First: O=S(=O)(CC(Br)(CBr)c1cccc(Cl)n1)C1CC1 (stereo not given)
Second: C[C@H](C1CCCCC1)N1C(=O)c2c(F)c(F)c(F)c(F)c2C1=O
The melting point of the first is lower: 75 °C for the first, 147 to 148 °C for the second.

First: CCCCCCCCCCCCCCCCOC(=O)CCCCCCCCCCCCC
Second: COc1cc(C#N)c(N=C(C)N(C)C)cc1OC
The melting point of the first is lower: 54 to 56 °C for the first, 94 to 96 °C for the second.
